Data published in PubChem BioAssay AID2060484 (Molecular Pharmacology Branch, DTP, NCI, 2025).

System: SUM149PT spheroids with HUVEC/MSC, viability
Assay: Anticancer human tumor SUM149PT cell line growth inhibition [GQUAD];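 also: spheroids exposed to drugs for seven days before readout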;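 as to viability, T/C: percent viability relative to DMSO vehicle control taken as 100%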
Conditions: for IC50: curve of first compound; for viability, T/C: stronger effect = lower value
In short: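 Viability of tumor cells grown as complex spheroids with endothelial and stromal cells, exposed to drug combinations. Top concentration at or near clinical Cmax (else 10 microM), diluted in half-log increments.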

Work on CCc1c2c(nc3ccc(O)cc13)-c1cc3c(c(=O)n1C2)COC(=O)[C@]3(O)CC + Cc1[nH]c2ccc(F)cc2c1-c1nc2c3cccnc3c3ncccc3c2[nH]1 yielded an IC50 (second compound 0.0316 µM) of 2.34 nM, an IC50 (second compound 0.1 µM) of 2.58 nM and an IC50 (second compound 0.316 µM) of 1.88 nM. The IC50 (second compound 1 µM) was 2.3 nM, the IC50 (second compound 3.16 µM) was 1.54 nM and the IC50 (second compound 10 µM) was < 0.999 nM. It also gave a viability, T/C (second compound 0.0316 µM, first compound 0.000999 µM) of 67.2%, a viability, T/C (second compound 0.0316 µM, first compound 0.00316 µM) of 34.9% and a viability, T/C (second compound 0.0316 µM, first compound 0.00999 µM) of 43.4%. The viability, T/C (second compound 0.0316 µM, first compound 0.0316 µM) was 34.7%, the viability, T/C (second compound 0.0316 µM, first compound 0.0999 µM) was 32.4% and the viability, T/C (second compound 0.0316 µM, first compound 0.316 µM) was 18.2%. For the same molecule, the viability, T/C (second compound 0.1 µM, first compound 0.000999 µM) was 69.1%, the viability, T/C (second compound 0.1 µM, first compound 0.00316 µM) was 32.6% and the viability, T/C (second compound 0.1 µM, first compound 0.00999 µM) was 45.4%. It also gave a viability, T/C (second compound 0.1 µM, first compound 0.0316 µM) of 34.2%, a viability, T/C (second compound 0.1 µM, first compound 0.0999 µM) of 27.8% and a viability, T/C (second compound 0.1 µM, first compound 0.316 µM) of 16.8%. The viability, T/C (second compound 0.316 µM, first compound 0.000999 µM) was 61.4%, the viability, T/C (second compound 0.316 µM, first compound 0.00316 µM) was 33.3% and the viability, T/C (second compound 0.316 µM, first compound 0.00999 µM) was 37.8%. It also gave a viability, T/C (second compound 0.316 µM, first compound 0.0316 µM) of 38.2%, a viability, T/C (second compound 0.316 µM, first compound 0.0999 µM) of 27.2% and a viability, T/C (second compound 0.316 µM, first compound 0.316 µM) of 15.7%. It also gave a viability, T/C (second compound 1 µM, first compound 0.000999 µM) of 65.9%, a viability, T/C (second compound 1 µM, first compound 0.00316 µM) of 35.5% and a viability, T/C (second compound 1 µM, first compound 0.00999 µM) of 38.1%. For the same molecule, the viability, T/C (second compound 1 µM, first compound 0.0316 µM) was 40.8%, the viability, T/C (second compound 1 µM, first compound 0.0999 µM) was 25.5% and the viability, T/C (second compound 1 µM, first compound 0.316 µM) was 18.4%. It also gave a viability, T/C (second compound 3.16 µM, first compound 0.000999 µM) of 59.7%, a viability, T/C (second compound 3.16 µM, first compound 0.00316 µM) of 34.1% and a viability, T/C (second compound 3.16 µM, first compound 0.00999 µM) of 38.7%. It also gave a viability, T/C (second compound 3.16 µM, first compound 0.0316 µM) of 39.7%, a viability, T/C (second compound 3.16 µM, first compound 0.0999 µM) of 27.6% and a viability, T/C (second compound 3.16 µM, first compound 0.316 µM) of 15.7%. For the same molecule, the viability, T/C (second compound 10 µM, first compound 0.000999 µM) was 56.5%, the viability, T/C (second compound 10 µM, first compound 0.00316 µM) was 31.1% and the viability, T/C (second compound 10 µM, first compound 0.00999 µM) was 36.3%. The viability, T/C (second compound 10 µM, first compound 0.0316 µM) was 39%, the viability, T/C (second compound 10 µM, first compound 0.0999 µM) was 25.3% and the viability, T/C (second compound 10 µM, first compound 0.316 µM) was 15.8%.
